What was measured:
hESCs [1] = assay: survival of hESCs after single-cell dissociation (anoikis); type: cell-based, human; details: with or without Y-27632
Method: hESCs were dissociated into single cells using Accutase (Stem Cell Technologies) and plated in the presence of 10 μM Y-27632 (ROCK inhibitor) for 12 hours (Watanabe et al., 2007).

CXCR4 [2] = target: T1, CXCR4 (Homo sapiens, UniProt P61073); assay: ELA receptor binding assay (ELA-AP) on 293T cells transfected with receptor; design: 293T cells transfected with plasmids encoding full-length ORFs of putative receptors; expressed in transfected cells; host or cells: 293T; details: ELA-AP conditioned medium, 3 hours
T1 sequence (P61073 whole entry): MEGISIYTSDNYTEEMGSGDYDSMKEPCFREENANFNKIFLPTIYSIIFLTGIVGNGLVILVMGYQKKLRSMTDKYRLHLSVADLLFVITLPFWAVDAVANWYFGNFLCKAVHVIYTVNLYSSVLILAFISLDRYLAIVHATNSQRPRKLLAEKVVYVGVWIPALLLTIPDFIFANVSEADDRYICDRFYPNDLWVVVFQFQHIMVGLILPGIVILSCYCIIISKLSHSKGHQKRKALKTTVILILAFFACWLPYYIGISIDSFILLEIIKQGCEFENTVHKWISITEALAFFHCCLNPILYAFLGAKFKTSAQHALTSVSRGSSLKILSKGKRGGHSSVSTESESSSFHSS
Method: Secreted ELA-Alkaline Phosphatase (ELA-AP) was produced by transfecting a construct encoding ELA-AP into 293T cells, as described previously (Chng et al., 2013). Conditioned medium from ELA-AP expressing cells was then incubated for 3 hours with 293T cells transfected with plasmids encoding full-length ORFs of putative receptors. Unbound ELA-AP was washed away and cells were lysed with 1% Triton-X/PBS. Lysates were cleared and incubated with an AP substrate BCIP/NBT at 37° C. for 15 minutes. Optical density was read at 495 nm, and the intensity of blue coloration is directly proportional to the affinity of ELA-AP to the over-expressed receptor.

[3] = pulmonary arterial hypertension, APELIN experiments repeated with ELABELA; details: in vivo
Source text: Am J Physiol Heart Circ Physiol 2009; 296:H2007-14.

hESCs [4] = assay: insulin replacement assay in hESCs; type: cell-based, human
Method: For insulin replacement assays, SHEF4 or HESC3 hESCs were cultured in TSER-E5 (Stem Cell Technologies) supplemented with TGF-β (5 ng/ml, R&D Systems) and bFGF (100 ng/ml, Invitrogen) with and without INSULIN (10 ug/ml, SIGMA).

hESCs [5] = assay: stress-induced apoptosis of hESCs by ionizing radiation; type: cell-based, human
CXCR4 [6] = target: T1, CXCR4; assay: PathHunter β-Arrestin CXCR4 assay, antagonist mode with SDF-1; type: cell-based; details: SDF-1 at EC80 concentration
Method: To detect activation of CXCR4 by ELA or SDF-1, recombinant ELA or SDF-1 were added in increasing concentrations for 90-180 minutes to cells stably expressing CXCR4 coupled to a downstream reporter. β-Arrestin recruitment was measured using the PathHunter® β-Arrestin CXCR4 assay (DiscoveRx). Interaction of CXCR4 with Arrestin was detected by Enzyme Fragment Complementation (EFC) between two complementary domains of β-galactosidase (β-Gal), one fused to CXCR4 and the other fused to β-Arrestin. β-Arrestin recruitment to CXCR4 results in complementation of the two domains to generate β-Gal activity. % Ac ? vity=100%×(mean RLU of test sample−mean RLU of vehicle control)/(mean MAX control ligand−mean RLU of vehicle control). To detect antagonism of SDF-1 by ELA, the assay was run in antagonist mode by measuring the EC50 of ELA in the presence of SDF-1 at EC80 concentration. To detect synergism between ELA and SDF-1, the assay was run in positive allosteric mode by measuring the EC50 of ELA in the presence of SDF-1 at EC20 concentration.

hESCs [7] = assay: directed endoderm differentiation of hESCs, SOX17+ cell count; type: cell-based, human; details: 2.5 uM ELA peptide up to day 3, count on day 5
Method: Shef4TetR5-shELA and Shef4TetR5-shβ2M cells were cultured in the presence (shELA and shβ2M respectively) or absence (Control) of 20 ng/ml doxycycline for 1 passage (4 days) and dissociated with Accutase. […] 24 hours later, the media was changed to Endo differentiation media 1 [RPMI 1640 (Gibco), 1× B-27 supplement (Invitrogen), 50 ng/ml of Activin A (R&D Systems), 25 ng/ml BMP4 (R&D Systems) and 50 ng/ml bFGF (Invitrogen)] for 3 days. On day 3, the media was changed to Endo differentiation media 2 (RPMI 1640, B27, 50 ng/ml Activin) for 2 more days of culture. Rescue experiments were performed by adding 2.5 uM of ELA peptide to Shef4TetR5-shELA concurrently with doxycycline up to day 3, when the ELA peptide is no longer necessary as judged by downregulation of endogenous ELA.
On day 5, cells were fixed with 4% paraformaldehyde and stained with α SOX17 (AF1924, R&D Systems) and DAPI. For each well, three different randomly selected fields were imaged and the number of nuclei staining positive of SOXI 7 and DAPI were counted using a custom macro in ImageJ. A minimum of two wells per condition was used for each experiment, and a minimum of two independent experiments were performed to generate the results.

[8] = heart failure, APELIN experiments repeated with ELABELA; details: in vivo
Source text: Nature 2012 Aug. […] J Clin Invest. 2013 Nov. 1.

[9] = artherosclerosis, APELIN experiments repeated with ELABELA; type: in vivo
Source text: J Clin Invest 2008; 118:3343-54.
The experiments described in the above publication are repeated, with the replacement of APELIN with ELABELA.

hESCs [10] = assay: uptake of FITC-labeled recombinant peptide by hESCs (immunofluorescence); type: cell-based, human
hECs = assay: growth and survival effect of recombinant ELA on hECs; type: cell-based, human
Method: Primary human fibroblasts, SW1353 chondrosarcoma (ATCC) and NTERA2 hECs (a gift from Barbara Knowles and Davor Solter) were grown in Dulbecco's modified Eagle's medium (DMEM) with 10% FBS (Hyclone), 2 mM GlutaMAX™ (Invitrogen) and 1 mM sodium pyruvate. For xCELLigence real time growth assays, 4000 cells were plated per well of an E-plate (ACEA Biosciences) with media changes every 48 hours. […] Cell cycle studies were performed with Click-iT EDU staining kit (Invitrogen) and by performing a double thymidine block (2.5 mM thymidine; 16 hour block, 8 hour release, 16 hour block) followed by DAPI staining for DNA content at the indicated times following release.

[11] = 3 hours after 1 Gray of γ irradiation

For QRPVNLTMRRKLRKHNCLQRRCMPLHSRVPFP [ELA], the “survival following dissociation (anoikis)” value (hESCs [1]) was “able to increase survival following dissociation”, the “cell surface binding to CXCR4” value (CXCR4 [2]) was “confers cell surface binding to ELA” and the “symptoms of pulmonary arterial hypertension” value [3] was “alleviates symptoms of pulmonary arterial hypertension”. For the same sequence, the “growth rescue of shELA hESCs under INSULIN deprivation” value (hESCs [4]) was “intermediate growth rescue”, the “rescue of the irradiation sensitivity of shELA hESCs” value (hESCs [5]) was “rescued this phenotype” and the “activated CASPASE 3 after irradiation” value (hESCs [5]; [11]) was “almost undetectable”. For the same sequence, the “γH2AX foci after irradiation” value (hESCs [5]; [11]) was “comparable numbers of γH2AX foci”, the “antagonism of SDF1-mediated CXCR4 activation” value (CXCR4 [6]) was “preventing SDF1-mediated CXCR4 activation” and the “rescue of SOX17+ endoderm differentiation of shELA hESCs” value (hESCs [7]) was “entirely rescued”. For the same sequence, the “protection against heart failure” value [8] was “able to provide protection against heart failure”, the protection against artherosclerosis ([9]; Ang II) was “can protect against artherosclerosis” and the “abdominal aortic aneurysm formation and rupture” value ([9]; in vivo) was “inhibit abdominal aortic aneurysm formation and rupture”. The “uptake by hESCs” value (hESCs [10]) was “rapidly up-taken by hESCs” and the “activity of recombinant ELA on hECs” value (hECs) was “exerted activity only on hESCs cultures and no other differentiated cell types”.

From patent publication US9902761B2, “Polypeptides, nucleic acids and uses thereof” (AGENCY FOR SCIENCE, TECHNOLOGY AND RESEARCH, priority 2013, dated 2018)
